Values of other authors, collected in patent US20050287205A1, “Dietary supplement compositions” (priority 2004, published 2005).

Experiments:
[1] = system: liver and skeletal muscle glycogen; details: acetic acid administration to mammals; promotes recovery from fatigue
[2] = system: spontaneously hypertensive rats
renin = details: spontaneously hypertensive rats
[3] = with water, ethyl alcohol, and diethyl ether

Q: Which “glycogen repletion in liver and skeletal muscle” value [1] does the source give for CC(=O)O [acetic acid] here?
A: enhances glycogen repletion in liver and skeletal muscle

Q: What about the blood pressure [2] of the same compound?
A: significantly reduces

Q: And the renin activity (renin)?
A: significantly reduces

Q: What about the miscibility [3] of the same compound?
A: miscible (mixable) in all proportions
